Source: ChEMBL document CHEMBL6074655, “Vindeburnol: A natural product-inspired chemical tool for central nervous system drug design” (Eur J Med Chem, 2024)

Tests used:
[1] = Toxicity in female mouse assessed as mortality rate at 50 mg/kg, iv; type: organism-based; conditions: in vivo
[2] = Toxicity in male mouse assessed as mortality rate at 50 mg/kg, iv; type: organism-based; conditions: in vivo

Question: With `O[C@@H]1C[C@H]2CCCN3CCc4c(n1c1ccccc41)[C@H]23` as the molecule, how does the mortality [1] read?
Answer: The mortality was 64%.

Question: What about the mortality [2] of the same molecule?
Answer: Its mortality is 70%.
